# Assays:
# C1q = target: T1, C1q (Homo sapiens, UniProt P02745+P02746+P02747); assay: FITC C1q binding to reagent-coated Ramos B cells in normal human serum; settings: normal human serum 1.25-10%, FIG. 3A
# T1 construct: normal human serum (NHS, #A113, Quidel Corp., San Diego, Calif.); tissue Quidel Corp. A113; host or cells: normal human serum (purchased), added to reagent-coated Ramos B cells
# Description: C1q binding studies were performed as previously described (Cragg et al., Blood 2004, 103:2738-2743). Briefly, Ramos B-cells in Iscoves media (#12440-053, Gibco/Invitrogen, Grand island, NY) with no serum were plated in 96-well V bottom plates at 5×10^5/well in 100 μl. Cells were incubated with reagents for 15 minutes at 37° C., and normal human serum (NHS, #A113, Quidel Corp., San Diego, Calif.) diluted in Iscoves was then added at a volume of 50 μl to each well for a final concentration of 10, 5, 2.5, or 1.25% human serum. Fifty μl of media was added to the control well. For cobra venom factor (CVF) experiments, CVF was added to human serum complement samples at 20 Units CVF/mL of serum for 90 minutes at 37° C. prior to addition of serum to complement assays, and the dilution of serum by CVF accounted for when making sample dilutions.
# The cells plus complement source were incubated for an additional 5 minutes at 37° C., and washed 2 times with cold PBS (#14040-133, Gibco/Invitrogen, Grand Island, N.Y.) via centrifugation and resuspended in 100 μl of PBS. Fifty μl from each well was transferred to a second plate for second step control staining. […] Samples were washed, resuspended in cold PBS, and read immediately on a FACsCalibur flow cytometer and analyzed with Cell Quest software (Becton Dickinson, San Jose, Calif.).
# Ramos B cells [1] = assay: CDC assay, Ramos B cells with human serum complement, propidium iodide; assay type: cell-based; settings: for CDC activity with human complement, single reagent: Ramos B cells, human serum
# Description: (§1) The cells were incubated 60 minutes at 37° C. […] Samples were incubated 15 minutes at room temperature in the dark prior to analysis by flow cytometry using a FACsCalibur and CellQuest software (Becton Dickinson).
# as §1
# BJAB B cells = assay: ADCC 51Cr release assay, BJAB targets, human PBMC effectors; assay type: cell-based; settings: 10 ng/mL to 20 μg/mL, effector:target 25:1, 6 hours, FIG. 5C
# Description: To determine the ADCC activity of SEC fractions, BJAB, Ramos, and Daudi lymphoblastoid B cells (10^7) cells were labeled with 500 μCi/mL ^51Cr sodium chromate for 2 hours at 37° C. in IMDM/10% FBS. PBMCs were isolated from heparinized, human whole blood by fractionation over Lymphocyte Separation Media (LSM, ICN Biomedical) gradients. Reagent samples were added to RPMI media with 10% FBS and five serial dilutions for each reagent were prepared. For combinations, the reagents were premixed and diluted prior to addition to the wells. The ^51Cr labeled BJAB were added at (2×10^4 cells/well). The PBMCs were then added at (5×10^5 cells/well) for a final ratio of 25:1 effectors (PBMC):targets (BJAB). […] CPM released was measured on a Packard TopCounNXT from 50 μl dried culture supernatant. Percent specific killing was calculated by subtracting (cpm [mean of quadruplicate samples] of sample—cpm spontaneous release)/(cpm maximal release-cpm spontaneous release)×100 (FIG. 5C).
# BJAB, Ramos, and Daudi lymphoblastoid B cells (10E7) cells were labeled with 500 μCi/mL ^51Cr sodium chromate for 2 hours at 37° C. in IMDM/10% FBS. […] Cells were counted by trypan blue exclusion using a hemacytometer prior to use in subsequent assays. […]
# Effectors and targets were added to media alone to measure background killing. […] CPM released was measured on a Packard TopCounNXT. […]
# CD37 = target: T2, CD37 (Homo sapiens, UniProt P11049); assay: binding of TRU-016 SEC fractions to Ramos cells, flow cytometry; design: Ramos cells expressing the CD20 and CD37 target antigens; endogenous in cells; host or cells: Ramos B-cell lymphoma line; settings: FITC goat anti-human IgG, FIG. 5A
# T2 sequence (P11049 1-281): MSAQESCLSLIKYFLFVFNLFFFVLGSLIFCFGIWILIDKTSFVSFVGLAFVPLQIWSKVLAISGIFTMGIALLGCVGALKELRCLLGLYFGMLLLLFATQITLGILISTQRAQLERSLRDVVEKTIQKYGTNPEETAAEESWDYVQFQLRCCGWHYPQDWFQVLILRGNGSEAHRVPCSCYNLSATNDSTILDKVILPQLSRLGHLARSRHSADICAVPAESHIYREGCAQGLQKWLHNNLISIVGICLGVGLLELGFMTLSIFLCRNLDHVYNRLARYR
# Description: To determine the binding properties of SEC fractions, cells were suspended in staining media at a concentration of approximately 4×10^6 cells/mL and then plated at 50 μl/well (2×10^5 cells/well) in staining media. Serial dilutions of SEC fractions were then added to sequential wells, incubated for 45 minutes, washed, and binding activity was detected using FITC goat anti-human IgG. Samples were fixed in 200 μl 1% paraformaldehyde in PBS. Cells were analyzed by flow cytometry on a FACsCalibur instrument using Cell Quest software (BD Biosciences, San Jose, Calif.) (FIG. 5A).
# Ramos B cells [2] = assay: CDC assay, Ramos B cells with rabbit complement; assay type: cell-based, human; settings: 10 μg/ml reagent, rabbit complement 10, 5 or 2.5%, FIG. 3C
# Description: Human and rabbit complement were then compared for their CDC activity in the presence of the TRU-016. The CDC activity of TRU-016 molecular forms incubated with Ramos B cells and human or rabbit complement was measured (FIG. 3C). Ramos B cells were added to wells in serum free media. […] Cells plus complement source were incubated 90 minutes at 37° C. Cells were washed once with cold PBS and propidium iodide (Molecular Probes #P3566) added to a final concentration of 0.5 μg/mL in cold PBS. Cells with PI were incubated in the dark at RT for 15 minutes and analyzed by flow cytometry.
# Ramos cells = assay: ADCC assay, labeled Ramos targets, human PBMC effectors; assay type: cell-based; settings: effector to target ratio 25:1, FIG. 18D
# Description: To determine the ADCC activity of SEC fractions, BJAB, Ramos, and Daudi lymphoblastoid B cells (10^7) cells were labeled with 500 μCi/mL ^51Cr sodium chromate for 2 hours at 37° C. in IMDM/10% FBS. PBMCs were isolated from heparinized, human whole blood by fractionation over Lymphocyte Separation Media (LSM, ICN Biomedical) gradients. Reagent samples were added to RPMI media with 10% FBS and five serial dilutions for each reagent were prepared. For combinations, the reagents were premixed and diluted prior to addition to the wells. The ^51Cr labeled BJAB were added at (2×10^4 cells/well). The PBMCs were then added at (5×10^5 cells/well) for a final ratio of 25:1 effectors (PBMC):targets (BJAB). Reactions were set up in quadruplicate wells of a 96 well plate. TRU-016 SEC fractions were added to wells at a final concentration ranging from 10 ng/mL to 20 μg/mL as indicated on the graphs. Each data series plots a different SEC fraction at the titration ranges described. Reactions were allowed to proceed for 6 hours at 37° C. in 5% CO2 prior to harvesting and counting. CPM released was measured on a Packard TopCounNXT from 50 μl dried culture supernatant. Percent specific killing was calculated by subtracting (cpm [mean of quadruplicate samples] of sample—cpm spontaneous release)/(cpm maximal release-cpm spontaneous release)×100 (FIG. 5C).
# Daudi cells = assay: Annexin V/PI apoptosis analysis, Daudi; assay type: cell-based, human
# Description: Further experiments examining the effect of TRU-016 on B cell line apoptosis were performed using the more highly purified dimer form of TRU-016 (FIG. 19B). Samples were analyzed at both 24 and 48 hours after initiation of incubation reactions. Annexin/PI analysis was performed on several cell types using 20 μg/mL TRU-016 protein. Because apoptosis was reduced using the dimer form of TRU-016, 20 μg/mL goat anti-human IgG was added to reactions in order to cross link reagents on the cell surface. Cells were then stained with Annexin V-FITC and propidium iodide.
# T1 sequence (P02745 23-245): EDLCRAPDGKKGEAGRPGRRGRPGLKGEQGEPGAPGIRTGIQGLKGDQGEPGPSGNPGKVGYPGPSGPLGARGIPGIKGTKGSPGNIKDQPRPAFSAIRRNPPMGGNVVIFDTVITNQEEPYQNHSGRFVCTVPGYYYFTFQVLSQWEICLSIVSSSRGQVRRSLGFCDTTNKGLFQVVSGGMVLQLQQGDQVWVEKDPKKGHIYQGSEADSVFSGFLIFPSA
# T1 sequence (P02746 28-253): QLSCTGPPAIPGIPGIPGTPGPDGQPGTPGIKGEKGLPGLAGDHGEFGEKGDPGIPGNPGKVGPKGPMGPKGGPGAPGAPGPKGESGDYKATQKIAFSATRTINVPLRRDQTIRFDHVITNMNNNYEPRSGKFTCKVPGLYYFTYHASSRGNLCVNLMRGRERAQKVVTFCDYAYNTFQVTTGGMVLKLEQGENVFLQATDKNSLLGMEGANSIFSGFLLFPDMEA
# T1 sequence (P02747 29-245): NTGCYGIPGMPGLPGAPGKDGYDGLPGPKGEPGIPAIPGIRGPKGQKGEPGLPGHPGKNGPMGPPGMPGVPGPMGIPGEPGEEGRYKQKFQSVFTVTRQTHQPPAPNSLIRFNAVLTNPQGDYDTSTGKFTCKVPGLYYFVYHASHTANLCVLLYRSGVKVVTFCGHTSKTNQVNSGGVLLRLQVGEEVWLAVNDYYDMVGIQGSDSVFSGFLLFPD
Substance,FITC C1q binding (C1q),"CDC activity with human complement, single reagent (Ramos B cells [1])","CDC cell killing in the presence of CVF (Ramos B cells [1]; human serum complement with cobra venom factor, FIG. 3B)","ADCC, % specific killing (BJAB B cells)",binding to Ramos cells (titration curves) (CD37),"CDC activity with human complement, single reagent (Ramos B cells [1]; listed as dimer form of the TRU-016)","CDC activity with human complement, single reagent (Ramos B cells [1]; listed as dimer peak)",CDC activity with rabbit complement (Ramos B cells [2]),ADCC against Ramos cells (Ramos cells),apoptosis of Daudi cells with crosslinking agent (Daudi cells; 20 μg/mL plus 20 μg/mL goat anti-human IgG),"apoptosis of Daudi cells (Daudi cells; 20 μg/mL, 24-48 hours, FIG. 19B)"
HMW multimer fraction: higher molecular weight multimers of TRU-016 separated by SEC,more binding than the other forms,significant levels of CDC activity,significantly reduced in the presence of CVF,"potent, dose-dependent ADCC",better binding,–,–,–,–,–,–
TRU-016 dimer peak: dimer form of TRU-016 isolated by GPC and HPLC fractionation from higher molecular weight multimers,–,poor mediator of CDC,–,"potent, dose-dependent ADCC",–,very low CDC activity,very little or no CDC activity,good CDC,significant levels of ADCC,significant increase in the level of CD37 targeted apoptosis,induces apoptosis of Daudi cells

# Source: patent publication US10143748B2, “B-cell reduction using CD37-specific and CD20-specific binding molecules” (Emergent Product Development Seattle, LLC, priority 2005, dated 2018)
